Reference: patent US20080200507A1, “Crystalline Non-Solvated Methanesulfonic Acid Salt of 1-(4-(2-Piperidinylethoxy)Phenoxy)-2-(3-Hydroxyphenyl)-6-Hydroxynaphthalene” (priority 2005, published 2008)
Counter-ions that a name gives are not always drawn.

Legend:
[1] = target: endogenous ER receptors in Ishikawa human endometrial tumor cells (Homo sapiens, UniProt P03372); assay: Ishikawa Cell Proliferation Assay (alkaline phosphatase endpoint), agonist and antagonist mode; format: cell-based; conditions: read-out: agonist response (percentage efficacy versus tamoxifen)
endogenous ER receptors in Ishikawa human endometrial tumor cells, sequence (P03372 whole entry): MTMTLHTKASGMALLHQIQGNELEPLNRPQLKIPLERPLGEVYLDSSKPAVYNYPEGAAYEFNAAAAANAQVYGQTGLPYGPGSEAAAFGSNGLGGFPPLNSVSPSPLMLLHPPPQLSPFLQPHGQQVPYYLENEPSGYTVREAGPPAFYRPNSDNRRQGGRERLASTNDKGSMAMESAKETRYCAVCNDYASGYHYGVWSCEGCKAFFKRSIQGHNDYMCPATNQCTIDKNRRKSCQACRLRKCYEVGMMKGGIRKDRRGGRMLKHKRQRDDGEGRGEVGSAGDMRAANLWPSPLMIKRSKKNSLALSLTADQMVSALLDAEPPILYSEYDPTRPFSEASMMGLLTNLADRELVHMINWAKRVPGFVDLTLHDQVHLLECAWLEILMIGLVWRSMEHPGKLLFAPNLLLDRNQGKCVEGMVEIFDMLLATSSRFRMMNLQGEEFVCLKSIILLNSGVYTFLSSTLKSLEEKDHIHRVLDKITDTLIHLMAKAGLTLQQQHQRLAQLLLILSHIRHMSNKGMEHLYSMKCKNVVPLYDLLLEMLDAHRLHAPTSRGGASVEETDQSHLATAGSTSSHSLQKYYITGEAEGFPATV
Description: Ishikawa Cell Proliferation Assay:
This assay measures cell proliferation in both an agonist mode in the presence of a salt of the present invention alone, and in an antagonist mode in which the ability of a salt of the present invention to block estradiol stimulation of growth is measured. This assay utilizes Ishikawa human endometrial tumor cells and measures agonist and antagonist effects on endogenous ER receptors via an alkaline phosphatase endpoint (Littlefield et al., Endocrinology, 127:2757-2762, 1990). Alkaline phosphatase activity is measured as an endpoint for relative estrogenic stimuli in both an agonist mode and antagonist mode, where the ability of a test compound to block estradiol stimulatory activity is measured (Bramlett, K S, Burris, J., Steroid Biochem. Molec. Biol., 86:27-34, 2003). […]
The plates are dried for 5 minutes and frozen at −70° C. for at least 1 hour. […] After a twenty minute incubation, plates are read on a spectrophotometer at 405 nm. […] For the agonist mode, a percentage efficacy for the test compound is calculated versus the response to 100 nM tamoxifen alkaline phosphatase stimulation as: 100×(test compound-control)/(tamoxifen-control). For the antagonist mode, a percentage efficacy for the test compound is calculated versus E2 (1 nM) alone as: 100×(E2-test compound)/(E2-control).

[2] = test system: estrogen-induced response (uterine weight/body weight ratio) in female Sprague Dawley (SD) rats; assay: 3-Day Rat Uterine Antagonist; format: in vivo; conditions: 72 h, oral, 3 days, with EE 0.1 mg/kg, two assays, same value on both occasions, read-out: ED50 (inhibition of estrogen-induced uterine weight response)
Description: 3-Day Rat Uterine Antagonist
Female Sprague Dawley (SD) rats, 6 per group and 19 to 21 days of age, are orally treated with ethinyl estradiol (EE; 0.1 mg/kg) and 10, 1, 0.1, or 0.01 mg/kg test compound for 3 days. Test compound is dissolved in 20% w/v β-hydroxycyclodextrin in water and administered by oral gavage in a volume of 0.2 mL daily (15 minutes prior to the EE gavage). Groups of 6 rats are also given vehicle as a negative control and EE alone as a positive control. The animals are fasted overnight following the final dose. On the following morning, the animals are weighed and then euthanized (by carbon dioxide asphyxiation) and the uteri are rapidly collected (via a midline ventral incision), stripped of adipose tissue, removed luminal fluid by blotting onto absorbant paper, and weighed.
Uterine weight/body weight ratios (UWR) are calculated for each animal. The percentage inhibition of the estrogen-induced response is then calculated by the following formula: percent inhibition=100×(UWREE−UWRtest compound/UWREE−UWRcontrol). ED50 values are derived from a semi-log regression analysis of the linear aspect of the dose response curve.

[3] = test system: ovariectomized SD female rats (uterine wet weight, BMC, BMD); assay: 8-Week Mature OVX Rat Uterine and Bone Effects; format: in vivo
Description: 8-Week Mature OVX Rat Uterine and Bone Effects
Virgin 6-month-old, SD female rats (Harlan, Ind.) weighing about 270 g are randomized to treatment groups and bilateral ovariectomies are performed using isoflurane anesthesia. Treatment is initiated 3 days after ovariectomy. Groups are orally dosed each day for 8 weeks with GS II mesylate in a vehicle of 20% hydroxypropyl-β-cyclodextrin (Aldrich Chemical Co., Milwaukee, Wis.). Vertebrae and femora are excised at necropsy and the mid-transverse section of the lumbar vertebra L-4 and distal femur metaphysis is scanned in 50% ethanol/saline, using quantitative computed tomography (QCT) (Research M, Norland/Stratec, Pt. Atkinson, Wis.). Cross-sectional area (X-Area), bone mineral content (BMC, mg), and volumetric BMD (vBMD, mg/cm^3) are quantitated, using voxel dimensions of 148×148×500 μm as previously described (Sato M., Bone, 17:157S-162S, 1995). Bone measurements are carried out by computed tomography (CT) scans on the distal femur metaphysis (cancelous bone measurement) and the […] lumbar vertebrae (Sato, 1995 and Sato, et al., J. Med. Chem., 42:1-24, 1999).

[4] = Salt forms administered to monkeys, blood levels of GS II and its conjugates; format: in vivo; conditions: compared among crystalline acetate, mesylate, lactate and phosphate salts, methanesulfonate
Description: Four of these salts (the crystalline acetate, mesylate, lactate and phosphate salts of GS II) were administered to monkeys and blood levels of GS II and its conjugates were measured. […] Some additional physical properties of crystalline non-solvated GS II mesylate are disclosed below in Table 1.

[5] = Moisture adsorption / hygroscopicity; format: physicochemical
[6] = Thermogravimetric analysis (volatiles / weight loss); format: physicochemical; conditions: 25 to 216° C.
[7] = In situ salt screening, aqueous in situ solubility; format: physicochemical; conditions: crystalline salts
Source text: In general, as aqueous solubility increases, the potential for absorption of the drug in the gut (and ultimate bioavailability) increases as well. Higher bioavailability can result in lower variability in clinical exposure and thus give the physician an advantage in correctly dosing-the patient within the therapeutic window. Using the aqueous in situ solubility as a guide, and the robustness of the same crystalline form isolated via automation, the crystalline mesylate, lactate, tartrate and phosphate salts of GS II were identified as candidates for further evaluation. Separately, the crystalline acetate salt of GS II was identified and also further characterized.

[8] = dose as low as 0.01 mg/kg, 8 weeks (distal femur metaphysis)

Compound | Emax [1] | ED50 [2] | BMC changes in the vertebrae ([3]; 8 weeks, lumbar vertebra) | BMD preservation in the vertebrae ([3]; 8 weeks, lumbar vertebra) | uterine stimulation over OVX control ([3]; 10-mg/kg dose, 8 weeks, in comparison to ovary intact (sham operated) rats) | preservation of BMC [3, 8] | preservation of BMD [3, 8] | Changes in uterine wet weight ([3]; oral daily, after 8 weeks of treatment) | in vivo exposure of GS II (ng hr/ml of GS II and of its conjugates) ([4]; listed as crystalline mesylate salt) | in vivo exposure of GS II (ng hr/ml of GS II and of its conjugates) [4] | hygroscopicity [5] | % Moisture Adsorbed @80% RH ([5]; 80% RH) | % Volatiles (Thermo Gravimetric Analysis) [6] | in situ aqueous solubility [7]
Oc1cccc(-c2ccc3cc(O)ccc3c2Oc2ccc(OCCN3CCCCC3)cc2)c1 [crystalline non-solvated GS II mesylate, 1-(4-(2-piperidinylethoxy)phenoxy)-2-(3-hydroxyphenyl)-6-hydroxynaphthalene, methanesulfonate] | 13.8% | 0.22 mg/kg | statistical significance for BMC changes were not achieved | BMD preservation was also seen | 8.7% | significant preservation | significant preservation | minimal | largest in vivo exposure | significant in vivo exposure | non-hygroscopic | <1% | <1% (25 to 216° C.) | 
fumarate |  |  |  |  |  |  |  |  |  |  |  |  |  | relatively low
tosylate |  |  |  |  |  |  |  |  |  |  |  |  |  | relatively low
